Laboratory results: patent US9776962B2, “Aromatic compounds with GPR40 agonistic activity” (TAKEDA PHARMACEUTICAL COMPANY LIMITED, priority 2013, dated 2017)

Molecular target: T1, human GPR40 (Homo sapiens, UniProt O14842)
T1 construct: expressed in transfected cells
Test: Evaluation of human GPR40 agonist activity with increase in intracellular Ca2+ concentration as an index (FLIPR)
Assay type: cell-based
Conditions: test compound 1 μM; CHO(dhfr−) cells stably expressing human GPR40; 100% = 10 μM compound of Example 153, 0% = DMSO
Procedure: Plasmid hGPR40/pAKKO-1.11H for mammalian cells expression, wherein cDNA fragment (SEQ ID NO: 1) encoding the full-length human GPR40 was incorporated into an expression vector pAKKO-1.11H (Biochimica et Biophysica Acta vol. 1219 pp. 251-259 (1994)), was transfected into CHO-dhfr(−) cells (ATCC, CRL-9096) by using Lipofectamine 2000 (Invitrogen:11668-019). After transfection, the limiting dilution-culture method was performed to select clone in selection medium (nucleic acid-free α-MEM (Invitrogen:12561-056)) containing 10% dialyzed bovine serum (Invitrogen:26400-044)). The expression level of human GPR40 mRNA was confirmed by TaqMan PCR (Life Technologies), and the intracellular calcium mobilization activity of GPR40 ligand (γ-linolenic acid) was confirmed by FLIPR (Molecular Devices), and a clone of human GPR40 expressing CHO cells was selected.
Evaluation of Human GPR40 Agonist Activity with Increase in Intracellular Ca^2+ Concentration as an Index
CHO(dhfr−) cells that stably expressed human GPR40 were suspended in MEMα (Nikken Bio Medical Laboratory) containing 10% dialyzed bovine serum (JR Scientific), 10 mM HEPES (Life Technologies), 100 U/mL penicillin, 100 μg/mL streptomycin (Life Technologies), and plated on a 384 well black/clear cell culture plate at 10,000 cells/well. After culture overnight in a CO2 incubator at 37° C., the culture supernatant was removed, and loading buffer [Ca^2+ probe attached to Calcium Kit II-iCellux (DOJINDO) was dissolved in assay buffer (20 mM HEPES, 0.1% fatty acid-free BSA (Sigma-Aldrich), 2.5 mM probenecid (DOJINDO)-containing HESS (Life Technologies))] was added at 30 μL/well. After leaving for 1 hr at room temperature under light shielding, assay buffer containing the test compound at a final concentration of 1 μM was added at 10 μL/well in FLIPR Tetra (Molecular Devices), and the fluorescence amount was successively measured. Human GPR40 agonist activity calculated using an increase in the intracellular Ca^2+ concentration as an index, wherein the activity of 10 μM of the compound of Example 153 was 100%, and the activity when DMSO was added instead of the test compound was 0%.

T1 sequence (O14842 whole entry): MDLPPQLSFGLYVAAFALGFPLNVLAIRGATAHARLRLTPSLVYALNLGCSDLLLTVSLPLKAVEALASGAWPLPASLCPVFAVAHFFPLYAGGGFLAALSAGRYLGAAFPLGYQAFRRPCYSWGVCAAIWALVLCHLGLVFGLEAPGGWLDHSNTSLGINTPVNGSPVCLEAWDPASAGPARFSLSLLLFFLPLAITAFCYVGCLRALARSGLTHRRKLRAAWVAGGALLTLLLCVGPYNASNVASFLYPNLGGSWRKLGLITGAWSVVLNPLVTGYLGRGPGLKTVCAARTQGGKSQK

COc1ccc(C(=O)N(CC2CC2)c2ccccn2)c(N2CCC(COc3cc(C(CC(=O)O)C4CC4)ccn3)CC2)c1 (stereo not shown) [Example 117, 3-cyclopropyl-3-(2-((1-(2-((cyclopropylmethyl)(pyridin-2-yl)carbamoyl)-5-methoxyphenyl)piperidin-4-yl)methoxy)pyridin-4-yl)propanoic acid]
activation at 1 µM: 95%

COc1cc(N2CCC(COc3cc(C(CC(=O)O)C4CC4)ccn3)CC2)c(C(=O)N(CC(C)(C)C)c2cccc(C)n2)cn1 (stereo not shown) [Example 255, 3-cyclopropyl-3-(2-((1-(5-((2,2-dimethylpropyl)(6-methylpyridin-2-yl)carbamoyl)-2-methoxypyridin-4-yl)piperidin-4-yl)methoxy)pyridin-4-yl)propanoic acid]
activation at 1 µM: 103%

COc1ccc(C(=O)Nc2ccccn2)c(N2CCC(COc3cc(C(CC(=O)O)C4CC4)ccn3)CC2)c1 (stereo not shown) [Example 242, 3-cyclopropyl-3-(2-((1-(5-methoxy-2-(pyridin-2-ylcarbamoyl)phenyl)piperidin-4-yl)methoxy)pyridin-4-yl)propanoic acid]
activation at 1 µM: 93%

COc1ccc(C(=O)N(CC(C)(C)C)c2nc(C)ccc2F)c(N2CCC(COc3cc(C(CC(=O)O)C4CC4)ccn3)CC2)c1 (stereo not shown) [Example 234, 3-cyclopropyl-3-(2-((1-(2-((2,2-dimethylpropyl) (3-fluoro-6-methylpyridin-2-yl)carbamoyl)-5-methoxyphenyl)piperidin-4-yl)methoxy)pyridin-4-yl)propanoic acid]
activation at 1 µM: 97%

COc1ccc(C(=O)N(C)CC(F)(F)C(F)(F)F)c(N2CCC(COc3cc(C(CC(=O)O)C4CC4)ccn3)CC2)c1 (stereo not shown) [Example 130, 3-cyclopropyl-3-(2-((1-(5-methoxy-2-(methyl(2,2,3,3,3-pentafluoropropyl)carbamoyl)phenyl)piperidin-4-yl)methoxy)pyridin-4-yl)propanoic acid]
activation at 1 µM: 100%

COc1ccc(C(=O)N(CC(C)(C)C)C2CCCN(CC(F)(F)F)C2)c(N2CCC(COc3cc(C(CC(=O)O)C4CC4)ccn3)CC2)c1 (stereo not shown) [Example 233, 3-cyclopropyl-3-(2-((1-(2-((2,2-dimethylpropyl) (1-(2,2,2-trifluoroethyl)piperidin-3-yl)carbamoyl)-5-methoxyphenyl)piperidin-4-yl)methoxy)pyridin-4-yl)propanoic acid]
activation at 1 µM: 85%

COc1ccc(C(=O)N(CC(C)(C)C)c2cccc(C)n2)c(N2CCC(COc3cc(C(CC(=O)O)C4CC4)c(F)cn3)CC2)c1 (stereo not shown) [Example 274, 3-cyclopropyl-3-(2-((1-(2-((2,2-dimethylpropyl)-(6-methylpyridin-2-yl)carbamoyl)-5-methoxyphenyl)piperidin-4-yl)methoxy)-5-fluoropyridin-4-yl)propanoic acid]
activation at 1 µM: 104%

COc1ccc(C(=O)N(CC(C)C)c2ccccn2)c(N2CCC(COc3cc(C(CC(=O)O)C4CC4)ccn3)CC2)c1 (stereo not shown) [Example 113, 3-cyclopropyl-3-(2-((1-(5-methoxy-2-((2-methylpropyl)(pyridin-2-yl)carbamoyl)phenyl)piperidin-4-yl)methoxy)pyridin-4-yl)propanoic acid]
activation at 1 µM: 102%

Cc1cccc(N(CC(C)(C)C)C(=O)c2ccc(Cl)cc2N2CCC(COc3cc(C(CC(=O)O)C4CC4)ccn3)CC2)n1 (stereo not shown) [Example 266, 3-(2-((1-(5-chloro-2-((2,2-dimethylpropyl)(6-methylpyridin-2-yl)carbamoyl)phenyl)piperidin-4-yl)methoxy)pyridin-4-yl)-3-cyclopropylpropanoic acid]
activation at 1 µM: 94%

COc1ccc(C(=O)N(CC(F)(F)C(F)(F)F)c2nccc(C)n2)c(N2CCC(COc3cc(C(CC(=O)O)C4CC4)ccn3)CC2)c1 (stereo not shown) [Example 171, 3-cyclopropyl-3-(2-((1-(5-methoxy-2-((4-methylpyrimidin-2-yl)(2,2,3,3,3-pentafluoropropyl)carbamoyl)phenyl)piperidin-4-yl)methoxy)pyridin-4-yl)propanoic acid]
activation at 1 µM: 106%

CCOC(CC(=O)O)c1cccc(OCC2CCN(c3cc(OC)ccc3C(=O)N(CC(C)(C)C)c3cccc(C)n3)CC2)c1 (stereo not shown) [Example 270, 3-(3-((1-(2-((2,2-dimethylpropyl)(6-methylpyridin-2-yl)carbamoyl)-5-methoxyphenyl)piperidin-4-yl)methoxy)phenyl)-3-ethoxypropanoic acid]
activation at 1 µM: 95%

COc1ccc(C(=O)N2CC(F)(F)OC(F)(F)C2)c(N2CCC(COc3cc(C(CC(=O)O)C4CC4)ccn3)CC2)c1 (stereo not shown) [Example 202, 3-cyclopropyl-3-(2-((1-(5-methoxy-2-((2,2,6,6-tetrafluoromorpholin-4-yl)carbonyl)phenyl)piperidin-4-yl)methoxy)pyridin-4-yl)propanoic acid]
activation at 1 µM: 102%

COc1ccc(C(=O)N(CC2CC2)c2ccccn2)c(N2CCC(COc3cc(C(CC(=O)O)C4CC4)ccn3)CC2)c1 (single isomer, unassigned) [Example 141, 3-cyclopropyl-3-(2-((1-(2-((cyclopropylmethyl)(pyridin-2-yl)carbamoyl)-5-methoxyphenyl)piperidin-4-yl)methoxy)pyridin-4-yl)propanoic acid]
activation at 1 µM: 81%

COc1ccc(C(=O)N(CC(C)(C)C)c2cccc(C)n2)c(N2CCC(COc3cccc(C(CC(=O)O)C4CC4)c3F)CC2)c1 (stereo not shown) [Example 275, 3-cyclopropyl-3-(3-((1-(2-((2-dimethylpropyl)-(6-methylpyridin-2-yl)-carbamoyl)-5-methoxy-phenyl)piperidin-4-yl)methoxy)-2-fluoro-phenyl)propanoic acid]
activation at 1 µM: 99%

COc1ccc(C(=O)N(CC(C)(C)C)c2cc(C)ccn2)c(N2CCC(COc3cc(C(CC(=O)O)C4CC4)ccn3)CC2)c1 (stereo not shown) [Example 112, 3-cyclopropyl-3-(2-((1-(2-((2,2-dimethylpropyl)(4-methylpyridin-2-yl)carbamoyl)-5-methoxyphenyl)piperidin-4-yl)methoxy)pyridin-4-yl)propanoic acid]
activation at 1 µM: 98%

CCC(C)(C)CN(C(=O)c1ccc(OC)cc1N1CCC(COc2cc(C(CC(=O)O)C3CC3)ccn2)CC1)c1ccccn1 (stereo not shown) [Example 149, 3-cyclopropyl-3-(2-((1-(2-((2,2-dimethylbutyl)(pyridin-2-yl)carbamoyl)-5-methoxyphenyl)piperidin-4-yl)methoxy)pyridin-4-yl)propanoic acid]
activation at 1 µM: 101%

COc1ccc(C(=O)N(C)C2CCN(CC(F)(F)F)CC2)c(N2CCC(COc3cc(C(CC(=O)O)C4CC4)ccn3)CC2)c1 (stereo not shown) [Example 194, 3-cyclopropyl-3-(2-((1-(5-methoxy-2-(methyl(1-(2,2,2-trifluoroethyl)piperidin-4-yl)carbamoyl)phenyl)piperidin-4-yl)methoxy)pyridin-4-yl)propanoic acid]
activation at 1 µM: 77%

Cc1cccc(N(CC(C)(C)C)C(=O)c2ccc(C#N)cc2N2CCC(COc3cc(C(CC(=O)O)C4CC4)ccn3)CC2)n1 (stereo not shown) [Example 260, 3-(2-((1-(5-cyano-2-((2,2-dimethylpropyl)(6-methylpyridin-2-yl)carbamoyl)phenyl)piperidin-4-yl)methoxy)pyridin-4-yl)-3-cyclopropylpropanoic acid]
activation at 1 µM: 89%

COc1ccc(C(=O)N(CC(F)(F)F)c2cncc(C)c2)c(N2CCC(COc3cc(C(CC(=O)O)C4CC4)ccn3)CC2)c1 (stereo not shown) [Example 175, 3-cyclopropyl-3-(2-((1-(5-methoxy-2-((5-methylpyridin-3-yl)(2,2,2-trifluoroethyl)carbamoyl)phenyl)piperidin-4-yl)methoxy)pyridin-4-yl)propanoic acid]
activation at 1 µM: 90%

COc1ccc(C(=O)N2CCOCC2c2ccccc2)c(N2CCC(COc3cc(C(CC(=O)O)C4CC4)ccn3)CC2)c1 (stereo not shown) [Example 200, 3-cyclopropyl-3-(2-((1-(5-methoxy-2-((3-phenylmorpholin-4-yl)carbonyl)phenyl)piperidin-4-yl)methoxy)pyridin-4-yl)propanoic acid]
activation at 1 µM: 89%

COc1ccc(C(=O)N(CC(C)(C)C)c2cc(C)cc(C)n2)c(N2CCC(COc3cc(C(CC(=O)O)C4CC4)ccn3)CC2)c1 (stereo not shown) [Example 243, 3-cyclopropyl-3-(2-((1-(2-((2,2-dimethylpropyl)(4,6-dimethylpyridin-2-yl)carbamoyl)-5-methoxyphenyl)piperidin-4-yl)methoxy)pyridin-4-yl)propanoic acid]
activation at 1 µM: 101%

COc1ccc(C(=O)NC2CCN(CC(F)(F)F)CC2)c(N2CCC(COc3cc(C(CC(=O)O)C4CC4)ccn3)CC2)c1 (stereo not shown) [Example 193, 3-cyclopropyl-3-(2-((1-(5-methoxy-2-((1-(2,2,2-trifluoroethyl)piperidin-4-yl)carbamoyl)phenyl)piperidin-4-yl)methoxy)pyridin-4-yl)propanoic acid]
activation at 1 µM: 39%
